Results from patent publication US12103919B2, “3-(5-oxy)-1-oxoisoindolin-2-yl)piperidine-2,6-dione derivatives and uses thereof” (NOVARTIS AG, priority 2021, dated 2024).
Like-named read-outs stand apart in the source and are kept apart here.

Target: T1, WIZ (Homo sapiens, UniProt O95785+Q96SW2)
T1 construct: expressed in transfected cells
Experiment: Quantification of WIZ protein levels in HiBit tag fusion protein assay (293T cells)
Type: cell-based
Set-up: Dmax: dose or concentration left out as unconfirmed
Protocol: The HiBit system from Promega was used to develop high-throughput and quantitative assays to measure changes in WIZ protein levels in response to compounds. The HiBit tag was derived from a split Nanoluciferase and has the following protein sequence: […] (SEQ ID NO: 1). The complementary fragment of Nanoluciferase (known as LgBit, from Promega), was added to the HiBit tag to form an active Nanoluciferase enzyme whose activity can be precisely measured. In this way, the levels of a fusion protein with the HiBit tag can be quantified in cell lysates.
Lentiviral vectors, based on the Invitrogen™ pLenti6.2/V5 DEST backbone were constructed that places the HiBit tag upstream of WIZ and expressed the fusion protein from an HSVTK promotor.
To ensure moderate and consistent expression of the HiBit-WIZ fusion protein across all cells in the population, stable cell lines were constructed from cells harboring a single copy of the construct. Lentivirus packaged with the constructs were made using the ViraPowerTMkit from Invitrogen™. 293T cells from ATCC (Catalog number: CRL-3216), were infected with the virus at low multiplicity of infection and selected by 5 μg/mL blasticidin in culture media for 2 weeks.
The levels of HiBit-WIZ tagged fusion proteins in compound-treated cell lines were measured as follows:
On day 1, cells were diluted to 1.0×10^6 cells/ml in normal growth medium. 20 μL of cell suspension were plated in each well of a solid white 384-well plate. Plates were incubated overnight in a 37° C. and 5% CO2 humidified tissue culture incubator.
On day 2, serial dilutions of compounds were made in 384-well plates. Compound plates were set up with DMSO in columns 1, 2, 23, 24, and 10-point compound dilution series in column 3-12 and column 13-22. 10 mM stock solution of compound were placed into column 3 or 13 and a 1:5 serial dilution was carried out until there was a 10-point dilution series per compound. 50 nL of diluted compounds were transferred into the plated cells by Echo® (Labcyte) acoustic transfer. The highest concentration of compound was 25 μM. Plates were incubated overnight (about 18 hours) in a 37° C. and 5% CO2 humidified tissue culture incubator.
On day 3, plates were removed from the incubator and allowed to equilibrate at room temperature for 60 minutes. HiBit substrate (Nano-Glo® HiBit Lytic Detection System, Promega Catalogue number: N3050) was added as described by the manufacturers protocols. Plates were incubated at room temperature for 30 minutes and luminescence was read using an EnVision® reader (PerkinElmer®). Data was analyzed and visualized using the Spotfire® software package.
WIZ Amax reflects the DMSO-normalized, curve-fitted percentage of WIZ-HiBit remaining at 25 uM. It was calculated by normalizing DMSO controls to 100%, parametric curve fitting of the dose response data (10-point, 5-fold), followed by calculation of response at 25 uM using the fitted equation.

[1] = HEK-293T; DMSO-normalized, curve-fitted percentage of WIZ-HiBit remaining at 25 uM; read-out: WIZ Amax
[2] = HEK-293T; at 25 uM, 100 − Amax; read-out: % degradation of WIZ (100 − Amax)
[3] = WIZ HiBit assay in 293T cells, about 18 hours, 10-point 5-fold dilution, top 25 μM; read-out: WIZ AC50
[4] = DMSO-normalized, curve-fitted percentage of WIZ-HiBit remaining at 25 uM
[5] = HEK-293T, read-out: % degradation of WIZ (100 − Amax)
[6] = read-out: WIZ AC50; WIZ HiBit assay in 293T cells, about 18 hours, 10-point 5-fold dilution, top 25 μM

T1 sequence (O95785 whole entry): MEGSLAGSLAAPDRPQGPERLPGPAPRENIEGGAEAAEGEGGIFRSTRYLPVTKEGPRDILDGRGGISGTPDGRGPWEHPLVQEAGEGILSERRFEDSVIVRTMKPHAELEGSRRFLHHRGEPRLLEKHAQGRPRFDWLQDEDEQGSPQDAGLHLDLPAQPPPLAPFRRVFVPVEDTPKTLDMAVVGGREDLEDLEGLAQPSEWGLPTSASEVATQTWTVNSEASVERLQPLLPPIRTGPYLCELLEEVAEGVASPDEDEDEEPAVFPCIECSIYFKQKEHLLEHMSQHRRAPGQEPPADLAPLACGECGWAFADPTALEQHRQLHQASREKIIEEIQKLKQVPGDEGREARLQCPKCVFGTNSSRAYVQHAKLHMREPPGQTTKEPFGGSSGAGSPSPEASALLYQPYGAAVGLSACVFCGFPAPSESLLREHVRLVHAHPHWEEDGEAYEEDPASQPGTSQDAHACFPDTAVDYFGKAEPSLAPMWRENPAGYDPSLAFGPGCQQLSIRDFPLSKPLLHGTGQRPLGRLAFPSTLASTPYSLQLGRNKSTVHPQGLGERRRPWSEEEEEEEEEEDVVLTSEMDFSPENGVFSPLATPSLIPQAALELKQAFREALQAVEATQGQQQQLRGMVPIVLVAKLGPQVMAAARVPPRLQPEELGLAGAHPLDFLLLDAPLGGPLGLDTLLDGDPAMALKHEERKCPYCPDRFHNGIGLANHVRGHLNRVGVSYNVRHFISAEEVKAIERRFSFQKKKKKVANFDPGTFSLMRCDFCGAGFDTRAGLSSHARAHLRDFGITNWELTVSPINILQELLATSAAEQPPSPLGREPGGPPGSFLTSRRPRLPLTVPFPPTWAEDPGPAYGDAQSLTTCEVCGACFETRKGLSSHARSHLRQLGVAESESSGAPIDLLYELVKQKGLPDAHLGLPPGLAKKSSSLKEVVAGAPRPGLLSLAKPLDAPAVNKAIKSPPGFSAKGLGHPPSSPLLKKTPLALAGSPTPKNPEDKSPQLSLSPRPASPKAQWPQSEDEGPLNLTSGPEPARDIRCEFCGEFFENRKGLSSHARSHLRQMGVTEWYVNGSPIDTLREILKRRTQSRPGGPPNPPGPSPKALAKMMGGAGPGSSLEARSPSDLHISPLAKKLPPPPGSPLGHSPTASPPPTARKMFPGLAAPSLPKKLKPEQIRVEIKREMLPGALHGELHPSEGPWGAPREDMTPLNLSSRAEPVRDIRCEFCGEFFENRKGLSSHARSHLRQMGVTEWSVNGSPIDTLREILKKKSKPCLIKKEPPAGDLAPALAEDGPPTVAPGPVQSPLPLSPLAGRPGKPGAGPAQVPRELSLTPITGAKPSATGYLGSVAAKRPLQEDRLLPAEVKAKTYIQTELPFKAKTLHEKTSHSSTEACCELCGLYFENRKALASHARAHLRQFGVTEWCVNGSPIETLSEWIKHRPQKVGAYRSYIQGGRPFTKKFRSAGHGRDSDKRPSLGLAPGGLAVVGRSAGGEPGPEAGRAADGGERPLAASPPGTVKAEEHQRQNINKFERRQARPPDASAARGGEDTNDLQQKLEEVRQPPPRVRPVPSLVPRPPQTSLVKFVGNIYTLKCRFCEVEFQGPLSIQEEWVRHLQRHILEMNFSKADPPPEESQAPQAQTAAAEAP
T1 sequence (Q96SW2 whole entry): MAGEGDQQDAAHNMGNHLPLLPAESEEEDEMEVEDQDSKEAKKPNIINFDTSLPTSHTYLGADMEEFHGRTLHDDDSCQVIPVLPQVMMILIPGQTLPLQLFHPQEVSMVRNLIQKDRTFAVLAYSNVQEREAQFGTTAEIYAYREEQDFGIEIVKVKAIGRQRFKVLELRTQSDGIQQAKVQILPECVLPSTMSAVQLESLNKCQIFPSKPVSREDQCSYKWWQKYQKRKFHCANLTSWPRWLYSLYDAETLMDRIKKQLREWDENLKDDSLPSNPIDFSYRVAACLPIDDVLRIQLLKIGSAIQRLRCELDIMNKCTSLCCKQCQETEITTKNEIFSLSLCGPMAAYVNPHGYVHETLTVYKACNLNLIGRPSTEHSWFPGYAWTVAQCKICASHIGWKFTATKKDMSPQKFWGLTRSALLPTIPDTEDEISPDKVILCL
T1 sequence (Q16531 whole entry partner): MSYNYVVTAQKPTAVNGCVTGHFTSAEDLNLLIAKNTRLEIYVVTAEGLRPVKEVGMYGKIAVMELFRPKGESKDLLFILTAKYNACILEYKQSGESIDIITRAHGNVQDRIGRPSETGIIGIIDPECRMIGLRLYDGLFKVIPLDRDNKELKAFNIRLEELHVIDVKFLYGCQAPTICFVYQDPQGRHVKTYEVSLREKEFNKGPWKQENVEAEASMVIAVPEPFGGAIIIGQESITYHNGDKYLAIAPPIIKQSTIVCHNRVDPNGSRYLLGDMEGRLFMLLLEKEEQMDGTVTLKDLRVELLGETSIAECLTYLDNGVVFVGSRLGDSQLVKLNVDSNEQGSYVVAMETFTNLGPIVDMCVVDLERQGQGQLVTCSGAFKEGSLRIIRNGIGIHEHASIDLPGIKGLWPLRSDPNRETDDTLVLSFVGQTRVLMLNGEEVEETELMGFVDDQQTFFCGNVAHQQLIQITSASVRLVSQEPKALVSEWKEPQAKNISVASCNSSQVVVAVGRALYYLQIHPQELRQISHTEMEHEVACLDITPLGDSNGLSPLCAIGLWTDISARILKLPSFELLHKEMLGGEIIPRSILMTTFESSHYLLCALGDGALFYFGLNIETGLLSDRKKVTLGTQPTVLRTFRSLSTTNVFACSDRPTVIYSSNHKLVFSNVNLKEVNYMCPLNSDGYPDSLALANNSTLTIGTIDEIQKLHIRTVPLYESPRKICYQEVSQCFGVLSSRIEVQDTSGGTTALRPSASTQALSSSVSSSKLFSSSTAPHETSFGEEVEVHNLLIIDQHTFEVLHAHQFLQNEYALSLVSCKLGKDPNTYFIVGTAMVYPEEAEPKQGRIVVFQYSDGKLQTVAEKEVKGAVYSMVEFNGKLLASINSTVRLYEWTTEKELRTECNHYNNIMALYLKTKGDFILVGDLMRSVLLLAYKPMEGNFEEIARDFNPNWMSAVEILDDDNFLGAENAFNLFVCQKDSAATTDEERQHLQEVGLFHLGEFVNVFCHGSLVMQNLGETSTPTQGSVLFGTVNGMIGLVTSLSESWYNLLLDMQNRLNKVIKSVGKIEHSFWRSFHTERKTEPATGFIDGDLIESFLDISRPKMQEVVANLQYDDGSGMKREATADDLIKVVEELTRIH

Row | remaining activity at 25 µM [1] [%] | Dmax at 25 µM [2] [%] | DC50 [3] [nM] | Structure (SMILES) | also measured
1 | 97.6 |  | > 25000 | CC[C@H](C)N1CCC(C)(C)C(Oc2ccc3c(c2)CN(C2CCC(=O)NC2=O)C3=O)C1 (single isomer, unassigned) [Example 50] | % degradation of WIZ (100 − Amax) (at 25 uM, 100 − Amax): 2.38%
2 |  |  | 200 | CC[C@H](C)N1CCC(C)(C)C(Oc2ccc3c(c2)CN(C2CCC(=O)NC2=O)C3=O)C1 (single isomer, unassigned) [Example 51] | WIZ Amax [4]: 87.19%; % degradation of WIZ (100 − Amax) (at 25 uM, 100 − Amax): 12.81%
3 | 77.3 | 22.7 | 55 | O=C1CCC(N2Cc3cc(O[C@@H]4CCCN(CC5CCC(F)(F)CC5)C4)ccc3C2=O)C(=O)N1 (stereo partly drawn) [Example 5, 3-(5-(((R)-1-((4,4-difluorocyclohexyl)methyl)piperidin-3-yl)oxy)-1-oxoisoindolin-2-yl)piperidine-2,6-dione] | 
4 | 86.7 | 13.3 | 31 | O=C1CCC(N2Cc3cc(O[C@@H]4CCCN(CC5CCCCC5)C4)ccc3C2=O)C(=O)N1 (stereo partly drawn) [Example 6, 3-(5-(((R)-1-(cyclohexylmethyl)piperidin-3-yl)oxy)-1-oxoisoindolin-2-yl)piperidine-2,6-dione] | 
5 | 38.9 | 61.1 | 1.1 | O=C1CCC(N2Cc3cc(O[C@@H]4CCCN(CC5CCC5)C4)ccc3C2=O)C(=O)N1 (stereo partly drawn) [Example 7, 3-(5-(((R)-1-(cyclobutylmethyl)piperidin-3-yl)oxy)-1-oxoisoindolin-2-yl)piperidine-2,6-dione] | 
6 | 33 | 67 | 28 | CCCN1CCC[C@@H](Oc2ccc3c(c2)CN(C2CCC(=O)NC2=O)C3=O)C1 (stereo partly drawn) [Example 8, 3-(1-oxo-5-(((R)-1-propylpiperidin-3-yl)oxy)isoindolin-2-yl)piperidine-2,6-dione] | 
7 |  |  | 4.2 | CC(C)N1CCC[C@@H](Oc2ccc3c(c2)CN(C2CCC(=O)NC2=O)C3=O)C1 (stereo partly drawn) [Example 9, 3-(5-(((R)-1-isopropylpiperidin-3-yl)oxy)-1-oxoisoindolin-2-yl)piperidine-2,6-dione] | Dmax (HEK-293T, read-out: % degradation of WIZ (100 − Amax), 100 − Amax): 71.5%; remaining activity at 25 µM (HEK-293T, read-out: WIZ Amax, DMSO-normalized, curve-fitted percentage of WIZ-HiBit remaining at 25 uM): 28.5%
8 | 45.5 | 54.5 | 33 | O=C1CCC(N2Cc3cc(O[C@@H]4CCCN(C5CCOCC5)C4)ccc3C2=O)C(=O)N1 (stereo partly drawn) [Example 10, 3-(1-oxo-5-(((R)-1-(tetrahydro-2H-pyran-4-yl)piperidin-3-yl)oxy)isoindolin-2-yl)piperidine-2,6-dione] | 
9 | 56.4 | 43.6 | 110 | O=C1CCC(N2Cc3cc(O[C@@H]4CCCN(C5CC6(COC6)C5)C4)ccc3C2=O)C(=O)N1 (stereo partly drawn) [Example 11, 3-(5-(((R)-1-(2-oxaspiro[3.3]heptan-6-yl)piperidin-3-yl)oxy)-1-oxoisoindolin-2-yl)piperidine-2,6-dione] | 
10 | 68.5 | 31.5 | 130 | O=C1CCC(N2Cc3cc(O[C@@H]4CCCN(C5COC5)C4)ccc3C2=O)C(=O)N1 (stereo partly drawn) [Example 12, 3-(5-(((R)-1-(oxetan-3-yl)piperidin-3-yl)oxy)-1-oxoisoindolin-2-yl)piperidine-2,6-dione] | 
11 | 40.9 | 59.1 | 2.5 | CC(C)CN1CCC2(CC2)[C@@H](Oc2ccc3c(c2)CN(C2CCC(=O)NC2=O)C3=O)C1 (stereo partly drawn) [Example 16, 3-(5-(((R)-6-isobutyl-6-azaspiro[2.5]octan-4-yl)oxy)-1-oxoisoindolin-2-yl)piperidine-2,6-dione] | 
12 | 27.8 | 72.2 | 14 | CC[C@H](C)N1CCC2(CC2)[C@@H](Oc2ccc3c(c2)CN(C2CCC(=O)NC2=O)C3=O)C1 (stereo partly drawn) [Example 17, 3-(5-(((R)-6-((S)-sec-butyl)-6-azaspiro[2.5]octan-4-yl)oxy)-1-oxoisoindolin-2-yl)piperidine-2,6-dione] | 
13 | 47.3 | 52.7 | 10 | CC#CCN1CCC[C@@H](Oc2ccc3c(c2)CN(C2CCC(=O)NC2=O)C3=O)C1 (stereo partly drawn) [Example 24, 3-(5-(((R)-1-(but-2-yn-1-yl)piperidin-3-yl)oxy)-1-oxoisoindolin-2-yl)piperidine-2,6-dione] | 

Further lines, the molecule ahead of its results:

Row | Structure (SMILES) | remaining activity at 25 µM [1] [%] | Dmax at 25 µM [2] [%] | DC50 [3] [nM] | also measured
14 | CCN1CCC(C)(C)C(Oc2ccc3c(c2)CN(C2CCC(=O)NC2=O)C3=O)C1 (single isomer, unassigned) [Example 49, 3-(5-((1-ethyl-4,4-dimethylpiperidin-3-yl)oxy)-1-oxoisoindolin-2-yl)piperidine-2,6-dione] | 91.4 | 8.63 | 83 | 
15 | CCN1C[C@H](OC)C[C@@H](Oc2ccc3c(c2)CN(C2CCC(=O)NC2=O)C3=O)C1 (single isomer, unassigned) [Example 65-1] | 18.1 | 81.9 | 1.4 | 
16 | CCN1C[C@H](OC)C[C@@H](Oc2ccc3c(c2)CN(C2CCC(=O)NC2=O)C3=O)C1 (single isomer, unassigned) [Example 65-2] |  |  | 1.2 | WIZ Amax [4]: 19.67%; % degradation of WIZ (100 − Amax) (at 25 uM, 100 − Amax): 80.33%
17 | CCN1C[C@H](C)C[C@@H](Oc2ccc3c(c2)CN(C2CCC(=O)NC2=O)C3=O)C1 (single isomer, unassigned) [Example 76-1] | 13.8 | 86.2 | 1.6 | 
18 | CCN1C[C@H](C)C[C@@H](Oc2ccc3c(c2)CN(C2CCC(=O)NC2=O)C3=O)C1 (single isomer, unassigned) [Example 76-2] |  |  | 0.6 | WIZ Amax [4]: 12.82%; % degradation of WIZ (100 − Amax) (at 25 uM, 100 − Amax): 87.18%
19 | CCN1CCC[C@H](Oc2ccc3c(c2)CN(C2CCC(=O)NC2=O)C3=O)C1 (stereo partly drawn) [Example 2, 3-(5-(((S)-1-ethylpiperidin-3-yl)oxy)-1-oxoisoindolin-2-yl)piperidine-2,6-dione] |  |  | 360 | Dmax [5]: 11.1%; remaining activity at 25 µM (HEK-293T, read-out: WIZ Amax): 88.9%
20 | CC(C)CN1CCC[C@@H](Oc2ccc3c(c2)CN(C2CCC(=O)NC2=O)C3=O)C1 (stereo partly drawn) [Example 3, 3-(5-(((R)-1-isobutylpiperidin-3-yl)oxy)-1-oxoisoindolin-2-yl)piperidine-2,6-dione] | 26.8 | 73.2 | 2 | 
21 | O=C1CCC(N2Cc3cc(O[C@@H]4CCCN(CC5COC5)C4)ccc3C2=O)C(=O)N1 (stereo partly drawn) [Example 4, 3-(5-(((R)-1-(oxetan-3-ylmethyl)piperidin-3-yl)oxy)-1-oxoisoindolin-2-yl)piperidine-2,6-dione] | 64.4 | 35.6 | 110 | 
22 | CCn1cc(CN2CCC[C@@H](Oc3ccc4c(c3)CN(C3CCC(=O)NC3=O)C4=O)C2)cn1 (stereo partly drawn) [Example 14, 3-(5-(((R)-1-((1-ethyl-1H-pyrazol-4-yl)methyl)piperidin-3-yl)oxy)-1-oxoisoindolin-2-yl)piperidine-2,6-dione] |  |  |  | Dmax [5]: 59.3%; remaining activity at 25 µM (HEK-293T, read-out: WIZ Amax): 40.7%; DC50 [6]: 57 nM
23 | CCN1CCC2(CC2)[C@@H](Oc2ccc3c(c2)CN(C2CCC(=O)NC2=O)C3=O)C1 (stereo partly drawn) [Example 15, 3-(5-(((R)-6-ethyl-6-azaspiro[2.5]octan-4-yl)oxy)-1-oxoisoindolin-2-yl)piperidine-2,6-dione] |  |  | 8.4 | Dmax [5]: 80%; remaining activity at 25 µM (HEK-293T, read-out: WIZ Amax): 20%
24 | CCN1C[C@H](Oc2ccc3c(c2)CN(C2CCC(=O)NC2=O)C3=O)CC[C@H]1C (stereo partly drawn) [Example 23, 3-(5-(((3R,6R)-1-ethyl-6-methylpiperidin-3-yl)oxy)-1-oxoisoindolin-2-yl)piperidine-2,6-dione] |  |  |  | Dmax [5]: 57.7%; remaining activity at 25 µM (HEK-293T, read-out: WIZ Amax): 42.3%; DC50 [6]: 30 nM
